Results: US20230416307A1, “[…] PEPTIDES FOR ENHANCING VIRAL PRODUCTION” (Synvivia, Inc., priority 2022, published 2023)

Assays:
AAV2 [1] = assay: Biological titer of AAVs packaged in cells expressing a CP (GFP-positive transduced HEK293 cells); type: cell-based, adeno-associated virus; conditions: FIG. 20B; HEK293 transduction; cells expressing individual CP relative to no CP expression
Experimental: (§1) FIG. 20. Exemplary bar charts showing fold improvement of physical titer and/or biological titer for various CPs. […] The payload being packaged during AAV production is GFP only. The cyclic peptide generator is located on a separate DNA, is only expressed by the host cell, and is not able to be packaged. Physical titer is quantified by qPCR or ddPCR and expressed as viral genomes produced per mL (VG/ml) of AAV packaging cells and media. […] Biological titer is measured in vitro by transducing a standardized number of wild-type (WT) mammalian (HEK293) cells with diluted AAVs harvested after packaging with or without CP expression. The transductants are identified by GFP payload expression. The fold improvement is calculated by dividing the percentage of GFP expressing (transduced) cells after transduction with AAVs packaged in cells expressing a CP by the percentage of GFP expressing (transduced) cells after transduction with AAVs packaged in cells that are not expressing a CP.
HEK-293T were reseeded in a 24 well tissue culture treated plate at a density of 1-2*10^4 cells/well in 0.5 mL of DMEM with 10% FBS. Cells were cultured overnight. 10-fold serial dilutions of prepared AAV2 particle solutions using DMEM with 10% FBS were used to infect the HEK-293T cells. Dilutions ranged from 1:10 to 1:10000. On Day 3 after infection, cells were detached using Trypsin/EDTA and analyzed for eGFP expression by image-based cytometry.
(§2) 50-70% confluent HEK-293T cells (˜10^6 total cells) grown in DMEM supplemented with 5% FBS were quadruple transfected with pHelper Vector, pAAV-ZsGreenl Vector, AAVpro® Packaging Rep-Cap Plasmid (AAV2), and pTargeT Mammalian Expression Vector with cloned individual cyclic peptide generator of interest in a 1:1:1:1 molar ratio normalized to the plasmid size using JetOptimus Transfection Reagent in 100 mm TC treated petri dish. AAV preparation is conducted as described above. Biological viral titer measurement is performed as described above.
(§3) • 1. A 100-mm cell culture dish was reseeded with 4.0×10^6 Hek293T cells in high glucose DMEM culture medium supplemented with 10% FBS. • 2. One day after plating, the cells (70-80% confluence) were co-transfected with 3.2ug pRC2 which encodes Rep and Cap genes (SEQ ID NO: 1-7), 4.6ug pHelper which encodes Adenovirus helper genes (SEQ ID NO: 16-19, 22, 23), 2.2ug payload vector, and 1-100ng engineered cyclic peptide expression vector (if using). A jetOPTIMUS DNA transfection reagent i used during the transfection protocol (from Polyplus). • 3. 12-16 hours after transfection, media was replaced with low glucose DMEM culture medium supplemented with 1% FBS, 1×Glutamax, 10 mM HEPES, and 0.075% sodium bicarbonate. • 4. Cells and media were harvested 4 days after transfection and frozen in 1 mL aliquots. • 5. Frozen aliquots were thawed and lysed using AAVMax Lysis Reagent (Life Technologies, USA, A50520). 100 uL of AAVMax Lysis buffer was added to 900 uL of cell and media. Mixture was incubated for 2 hours with rotating. Debris was pelleted at 5,000xg for 15 minutes. AAV containing supernatant was collected. • 6. The physical and biological titers of the harvested AAV samples were determined by qPCR and biological viral titer measurement as described in Example 1.
The fold improvement in biological titer was calculated by dividing the percentage of GFP expressing (transduced) cells after transduction with AAVs packaged in cells expressing a CP by the percentage of GFP expressing (transduced) cells after transduction with AAVs packaged in cells that are not expressing a CP.

AAV2 [2] = assay: Physical titer (qPCR or ddPCR, VG/ml) of AAVs packaged in cells expressing a CP; type: cell-based, adeno-associated virus; conditions: FIG. 20A; GFP payload; cells expressing individual CP relative to no CP expression
Experimental: as §1
Primers binding the eGFP reporter protein were used to measure the virus titer with quantitative polymerase chain reaction (qPCR). Before releasing the viral DNA from the particles, all extra-viral DNA was removed by digestion with DNase I. Then, the viral DNA was released by alkaline lysis. The qPCR was performed using the PowerUp™ SYBR™ Green Master Mix (Applied Biosystems), and primers against the zsGreen obtained from Integrated DNA Technologies. The extracted viral DNA and a serial dilution of a viral plasmid containing z as a standard were measured using the CFX96 Touch Real-Time PCR Detection System and the CFX Maestro Software (Bio-Rad, Hercules, CA).
as §2, §3
The physical titer fold improvement was calculated by dividing the physical titer of AAVs packaged in cells expressing a CP by the physical titer of cells that are not expressing a CP.

Substance | fold improvement in biological titer of AAVs (AAV2 [1]) | fold improvement in physical titer of AAVs (AAV2 [2])
CSVPY: engineered cyclic peptide, SEQ ID NO: 58 (cyclic; Cyclic peptide that was found to enhance AAV viral titer) | fold improvements in biological titer | 
CAAAS: engineered cyclic peptide, SEQ ID NO: 48 (cyclic; Cyclic peptide that was found to enhance AAV viral titer) | fold improvements in biological titer | fold improvements in physical titer
CQSRS: engineered cyclic peptide, SEQ ID NO: 54 (cyclic; Cyclic peptide that was found to enhance AAV viral titer) |  | fold improvements in physical titer
CARFR: engineered cyclic peptide, SEQ ID NO: 51 (cyclic; Cyclic peptide that was found to enhance AAV viral titer) | fold improvements in biological titer | 
CANMPY: engineered cyclic peptide, SEQ ID NO: 50 (cyclic; Cyclic peptide that was found to enhance AAV viral titer; We observed log10 enrichment score of 2.959, mean of 79 experimental replicates. We observed excellent mean log10 enrichment scores for this cyclic peptide across multiple AAV serotypes: AAV1_3.0; AAV2_3.1; AAV5_2.8; AAV6_2.7. This CP possesses the following motifs: POL_HYD_POL-motif; HYD_ARO_POL-motif; POL_HYD_HYD-motif.) | fold improvements in biological titer | 
CPKNP: engineered cyclic peptide, SEQ ID NO: 53 (cyclic; Cyclic peptide that was found to enhance AAV viral titer) |  | fold improvements in physical titer
CADTV: engineered cyclic peptide, SEQ ID NO: 49 (cyclic; Cyclic peptide that was found to enhance AAV viral titer) |  | fold improvements in physical titer
CYSPF: engineered cyclic peptide, SEQ ID NO: 61 (cyclic; Cyclic peptide that was found to enhance AAV viral titer) | fold improvements in biological titer | 
CKDYFS: engineered cyclic peptide expressed from a generator plasmid, SEQ ID NO: 34 (cyclic; Cyclic peptide that was found to increase AAV viral titer.) |  | fold improvements in physical titer
CRRHYA: engineered cyclic peptide, SEQ ID NO: 230 | fold improvements in biological titer | 
CETDV: engineered cyclic peptide, SEQ ID NO: 52 (cyclic; Cyclic peptide that was found to enhance AAV viral titer) | fold improvements in biological titer | 
CTCKK: engineered cyclic peptide, SEQ ID NO: 59 (cyclic; Cyclic peptide that was found to enhance AAV viral titer) |  | fold improvements in physical titer
